Assay results published in US8207178B2 (priority 2007, dated 2012).

Experiments:
[1] = tested on: HIV-1 K103N-L100I mutant; assay: microbe, parasite or virus in culture; format: cell-based, human immunodeficiency virus type 1 (HIV-1); settings: Human immunodeficiency virus 1, HeLa, read-out: EC50 mutant K103N-L100I, mutant K103N-L100I
[2] = tested on: wild type HIV-1; assay: microbe, parasite or virus in culture; format: cell-based, human immunodeficiency virus type 1 (HIV-1); settings: Human immunodeficiency virus 1, Hela-JC53

SMILES	EC50 [1]	EC50 [2]
COC(=O)c1ccc(-c2cc(C)c(Oc3nc(Nc4ccc(C#N)cc4)nc4[nH]cnc34)c(C)c2)cn1 [Example 130, Methyl 5-(4-(2-(4-cyanophenylamino)-9H-purin-6-yloxy)-3,5-dimethylphenyl)picolinate]	> 10 nM	1 to 10 nM
COc1ccc(Cn2cnc3c(Oc4ccc(-c5ccncc5)cc4)nc(Nc4c(C)cc(C#N)cc4C)nc32)cc1 [Example 105, 4-(9-(4-Methoxybenzyl)-6-(4-(pyridin-4-yl)phenoxy)-9H-purin-2-ylamino)-3,5-dimethylbenzonitrile]	> 10 nM	> 10 nM
Cc1cc(-c2cccc(C(=O)N(C)C)c2)cc(C)c1Oc1nc(Nc2ccc(C#N)cc2)nc2ccn(C)c12 [Example 36, 4′-(2-(4-Cyanophenylamino)-5-methyl-5H-pyrrolo[3,2-d]pyrimidin-4-yloxy)-N,N,3′,5′-tetramethylbiphenyl-3-carboxamide]	> 10 nM	1 to 10 nM
Cc1cc(-c2ccncc2C#N)cc(C)c1Oc1nc(Nc2ccc(C#N)cc2)nc2c(Cl)cn(C)c12 [Example 31, 4-(4-(7-Chloro-2-(4-cyanophenylamino)-5-methyl-5H-pyrrolo[3,2-d]pyrimidin-4-yloxy)-3,5-dimethyl-phenyl)nicotinonitrile]	< 1 nM	< 1 nM
Cc1cc(-c2ccc(N)cc2)cc(C)c1Oc1nc(Nc2ccc(C#N)cc2)nc2ccn(C)c12 [Example 54, 4-(4-(4′-Amino-3,5-dimethylbiphenyl-4-yloxy)-5-methyl-5H-pyrrolo[3,2-d]pyrimidin-2-ylamino) benzonitrile]	> 10 nM	< 1 nM
Cc1cc(-c2ccc(S(=O)(=O)N(C)C)cc2)cc(C)c1Oc1nc(Nc2ccc(C#N)cc2)nc2ccn(C)c12 [Example 42, 4′-(2-(4-Cyanophenylamino)-5-methyl-5H-pyrrolo[3,2-d]pyrimidin-4-yloxy)-N,N,3′,5′-tetramethylbiphenyl-4-sulfonamide]	> 10 nM	1 to 10 nM
Cc1cc(-c2c(C)noc2C)cc(C)c1Oc1nc(Nc2ccc(C#N)cc2)nc2ccn(C)c12 [Example 35, 4-(4-(4-(3,5-Dimethylisoxazol-4-yl)-2,6-dimethylphenoxy)-5-methyl-5H-pyrrolo[3,2-d]pyrimidin-2-ylamino) benzonitrile]	1 to 10 nM	1 to 10 nM
Cc1cc(-c2ccc(C(N)=O)cc2)cc(Cl)c1Oc1nc(Nc2ccc(C#N)cc2)nc2c1ncn2C [Example 117, 3′-chloro-4′-(2-(4-cyanophenylamino)-9-methyl-9H-purin-6-yloxy)-5′-methylbiphenyl-4-carboxamide]	1 to 10 nM	< 1 nM
Cc1cc(-c2ccc(C(N)=O)cc2)cc(Cl)c1Oc1nc(Nc2ccc(C#N)cc2)nc2ncn(C)c12 [Example 116, 3′-chloro-4′-(2-(4-cyanophenylamino)-7-methyl-7H-purin-6-yloxy)-5′-methylbiphenyl-4-carboxamide]	1 to 10 nM	< 1 nM
Cn1cnc2c(Oc3c(Cl)cc(-c4ccc(C(N)=O)cc4)cc3Cl)nc(Nc3ccc(C#N)cc3)nc21 [Example 114, 3′,5′-dichloro-4′-(2-(4-cyanophenylamino)-9-methyl-9H-purin-6-yloxy)biphenyl-4-carboxamide]	> 10 nM	< 1 nM
Cc1cc(-c2c(C)nn(C)c2C)cc(C)c1Oc1nc(Nc2ccc(C#N)cc2)nc2ccn(C)c12 [Example 21]	> 10 nM	1 to 10 nM
Cc1cc(-c2ccc[nH]2)cc(C)c1Oc1nc(Nc2ccc(C#N)cc2)nc2ccn(C)c12 [Example 27, 4-(4-(2,6-Dimethyl-4-(1H pyrrol-2-yl)phenoxy)-5-methyl-5H-pyrrolo[3,2-d]pyrimidin-2-ylamino) benzonitrile]	> 10 nM	< 1 nM
Cc1cc(-c2cnccc2C#N)cc(C)c1Oc1nc(Nc2ccc(C#N)cc2)nc2ccn(C)c12 [Example 64, 3-(4-(2-(4-cyanophenylamino)-5-methyl-5H-pyrrolo[3,2-d]pyrimidin-4-yloxy)-3,5-dimethylphenyl) isonicotinonitrile]	< 1 nM	< 1 nM
Cc1cc(-c2ccc(S(N)(=O)=O)cc2)cc(Cl)c1Oc1nc(Nc2ccc(C#N)cc2)nc2c1ncn2C [Example 113, 3′-chloro-4′-(2-(4-cyanophenylamino)-9-methyl-9H-purin-6-yloxy)-5′-methylbiphenyl-4-sulfonamide]	1 to 10 nM	< 1 nM
Cc1cc(-c2ccc(C(N)=O)nc2)cc(C)c1Oc1nc(Nc2ccc(C#N)cc2)nc2[nH]cnc12 [Example 129, 5-(4-(2-(4-cyanophenylamino)-9H-purin-6-yloxy)-3,5-dimethylphenyl)picolinamide]	> 10 nM	1 to 10 nM
Cc1cc(-c2ccc(C#N)nc2)cc(C)c1Oc1nc(Nc2ccc(C#N)cc2)nc2ccn(C)c12 [Example 84, 5-(4-(2-(4-cyanophenylamino)-5-methyl-5H-pyrrolo[3,2-d]pyrimidin-4-yloxy)-3,5-dimethyl-phenyl)picolinonitrile]	1 to 10 nM	1 to 10 nM

SMILES	EC50 [1]	EC50 [2]
Cc1cc(-c2ccc(C(N)=O)cn2)cc(C)c1Oc1nc(Nc2ccc(C#N)cc2)nc2c1ncn2C [Example 124, 6-(4-(2-(4-cyanophenylamino)-9-methyl-9H-purin-6-yloxy)-3,5-dimethylphenyl)nicotinamide]	> 10 nM	1 to 10 nM
COc1cc(-c2cc(C)c(Oc3nc(Nc4ccc(C#N)cc4)nc4ccn(C)c34)c(C)c2)ccn1 [Example 10, 4-(4-(4-(2-Methoxypyridin-4-yl)-2,6-dimethylphenoxy)-5-methyl-5H-pyrrolo[3,2-d]pyrimidin-2-ylamino) benzonitrile]	> 10 nM	> 10 nM
Cc1cc(-c2ccnc3ccccc23)cc(C)c1Oc1nc(Nc2ccc(C#N)cc2)nc2ccn(C)c12 [Example 37]	> 10 nM	1 to 10 nM
Cc1cc(-c2cnc3ccccc3c2)cc(C)c1Oc1nc(Nc2ccc(C#N)cc2)nc2ccn(C)c12 [Example 41, 4-(4-(2,6-Dimethyl-4-(quinolin-3-yl)phenoxy)-5-methyl-5H-pyrrolo[3,2-d]pyrimidin-2-ylamino) benzonitrile]	> 10 nM	1 to 10 nM
Cc1cc(-c2cc(F)cc(F)c2)cc(C)c1Oc1nc(Nc2ccc(C#N)cc2)nc2ccn(C)c12 [Example 65, 4-(4-(3′,5′-difluoro-3,5-dimethylbiphenyl-4-yloxy)-5-methyl-5H-pyrrolo[3,2-d]pyrimidin-2-ylamino) benzonitrile]	> 10 nM	< 1 nM
Cc1cc(-c2ccncc2Cl)cc(C)c1Oc1nc(Nc2ccc(C#N)cc2)nc2ccn(C)c12 [Example 11, 4-(4-(4-(3-Chloropyridin-4-yl)-2,6-dimethylphenoxy)-5-methyl-5H-pyrrolo[3,2-d]pyrimidin-2-ylamino) benzonitrile]	< 1 nM	< 1 nM
Cc1cc(-c2ccc(C(N)=O)nc2)cc(C)c1Oc1nc(Nc2ccc(C#N)cc2)nc2ncn(C)c12 [Example 118, 5-(4-(2-(4-cyanophenylamino)-7-methyl-7H-purin-6-yloxy)-3,5-dimethylphenyl)picolinamide]	1 to 10 nM	1 to 10 nM
Cc1cc(-c2ccc3c(c2)OCCO3)cc(C)c1Oc1nc(Nc2ccc(C#N)cc2)nc2ccn(C)c12 [Example 68, 4-(4-(4-(2,3-dihydrobenzo [b][1,4]dioxin-6-yl)-2,6-dimethylbipheoxy)-5-methyl-5H-pyrrolo[3,2-d]pyrimidin-2-ylamino) benzonitrile]	> 10 nM	< 1 nM
Cc1cc(-c2ccc(C(N)=O)cc2)cc(C)c1Oc1nc(Nc2ccc(C#N)cc2)nc2c(Cl)cn(C)c12 [Example 88, 4′-(7-chloro-2-(4-cyanophenylamino)-5-methyl-5H-pyrrolo[3,2-d]pyrimidin-4-yloxy)-3′,5′-dimethylbiphenyl-4-carboxamide]	1 to 10 nM	1 to 10 nM
Cc1cc(-c2ccncc2)cc(C)c1Oc1nc(Nc2ccc(C#N)cc2)nc2ncn(C)c12 [Example 107, 4-(6-(2,6-Dimethyl-4-(pyridin-4-yl)phenoxy)-7-methyl-7H-purin-2-ylamino)benzonitrile]	1 to 10 nM	1 to 10 nM
Cc1cc(-c2ccc(C(=O)O)cc2)cc(C)c1Oc1nc(Nc2ccc(C#N)cc2)nc2ccn(C)c12 [Example 75, 4′-(2-(4-cyanophenylamino)-5-methyl-5H-pyrrolo[3,2-d]pyrimidin-4-yloxy)-3′,5′-dimethylbiphenyl-4-carboxylic acid]	1 to 10 nM	< 1 nM
Cc1cc(-c2cccc(C(N)=O)c2)cc(C)c1Oc1nc(Nc2ccc(C#N)cc2)nc2ccn(C)c12 [Example 77, 4′-(2-(4-cyanophenylamino)-5-methyl-5H-pyrrolo[3,2-d]pyrimidin-4-yloxy)-3′,5′-dimethylbiphenyl-3-carboxamide]	> 10 nM	1 to 10 nM
COc1c(F)cc(F)cc1-c1cc(C)c(Oc2nc(Nc3ccc(C#N)cc3)nc3ccn(C)c23)c(C)c1 [Example 67, 4-(4-(3′,5′-difluoro-2′-methoxy-3,5-dimethylbiphenyl-4-yloxy)-5-methyl-5H-pyrrolo[3,2-d]pyrimidin-2-ylamino) benzonitrile]	> 10 nM	< 1 nM
Cc1cc(-c2cccnc2)cc(C)c1Oc1nc(Nc2ccc(C#N)cc2)nc2ccn(C)c12 [Example 12, 4-(4-(2,6-Dimethyl-4-(pyridin-3-yl)phenoxy)-5-methyl-5H-pyrrolo[3,2-d]pyrimidin-2-ylamino)benzonitrile]	> 10 nM	1 to 10 nM
Cc1cc(-c2ccc(C(=O)N(C)C)cc2)cc(C)c1Oc1nc(Nc2ccc(C#N)cc2)nc2ccn(C)c12 [Example 89, 4′-(2-(4-cyanophenylamino)-5-methyl-5H-pyrrolo[3,2-d]pyrimidin-4-yloxy)-N,N,3′,5′-tetramethylbiphenyl-4-carboxamide]	> 10 nM	1 to 10 nM
Cc1cc(-c2ccc(C(=O)N3CCC(C#N)C3)cn2)cc(C)c1Oc1nc(Nc2ccc(C#N)cc2)nc2[nH]cnc12 (stereo not shown) [Example 127, 1-(6-(4-(2-(4-cyanophenylamino)-9H-purin-6-yloxy)-3,5-dimethylphenyl)nicotinoyl)pyrrolidine-3-carbonitrile]	> 10 nM	> 10 nM
